The source of these data is US4419447A, “Fermentation process for producing demycinosyltylosin” (Eli Lilly and Company, priority 1981, dated 1983).

Data set [1] relates to Mycoplasma gallisepticum. The data set is described as follows: Treatment of induced Mycoplasma gallisepticum infection in chicks with DMT tartrate. The data set is classed as in vivo. Conditions: infected control 231. The procedure: (§1) Activity against Mycoplasma species is an especially useful aspect of the DMT compounds. Tables 10 and 11 summarize experiments using DMT and DMT tartrate for the treatment of induced Mycoplasma gallisepticum infections in chickens. The compounds were administered in the drinking water (at 1 and 2 grams per gallon for 1 to 3 days) or by injection at 15 or 30 mg/kg of body weight.

For data set [2], the system named is Streptococcus pyogenes C203. Description: Experimental infection in mice. It counts as in vivo. Particulars: two doses.
The subject of data set [3] is Streptococcus pneumoniae Park I. The data set is described as follows: Experimental infection in mice. It counts as in vivo.
Data set [4] has as its system Streptomyces fradiae E2724.1. Description: Antibiotic sensitivity of S. fradiae E2724.1 (sensitivity discs on seeded agar plates). The data set is classed as cell-based. An excerpt:
(§2) ^a Determined by using sensitivity discs padded onto seededagar

In data set [5] the test system is Streptomyces fradiae NRRL 12170. The data set is described as follows: Antibiotic sensitivity of S. fradiae NRRL 12170 (sensitivity discs on seeded agar plates). It counts as cell-based.
Description: as §2

Data set [6] in a line: Acute toxicity of DMT in mice. Conditions: mouse, in vivo. An excerpt:
In these studies, 4- to 5-week-old Harlan ICR mice were used. […]

A further data set is described as follows: physchem. It counts as physicochemical. Particulars: 66% aqueous dimethylformamide.
Data set [7] concerns Staphylococcus aureus 3055. The data set is described as follows: In vitro activity, standard agar-dilution assay. The data set is classed as cell-based. An excerpt: (§3) Table 8 summarizes the minimal inhibitory concentrations (MIC), as measured by standard agar-dilution assays, at which DMT (free base) inhibits certain bacteria.
The test system of data set [8] is Streptococcus pyogenes C203. Description: In vitro activity, standard agar-dilution assay. The data set is classed as cell-based.
Description: as §3

Data set [9] relates to Streptococcus sp. (Group D) 282. The data set is described as follows: In vitro activity, standard agar-dilution assay. The data set is classed as cell-based.
Description: as §3

For a further data set, the system named is Pasteurella multocida. Description: In vitro activity, standard agar-dilution assay. The data set is classed as cell-based.
Description: as §3

Another data set concerns Pasteurella hemolytica. Description: In vitro activity, standard agar-dilution assay. The data set is classed as cell-based.
Description: as §3

Data set [10] deals with Streptococcus pneumoniae Park I. Description: In vitro activity, standard agar-dilution assay. It counts as cell-based.
Description: as §3

For the next data set, the system named is Mycoplasma hyopneumoniae. Description: In vitro activity, standard agar-dilution assay. It counts as cell-based. Particulars: Mesomycoplasma hyopneumoniae.
Description: as §3

The test system of the next data set is Mycoplasma hyorhinis. Description: In vitro activity, standard agar-dilution assay. It counts as cell-based.
Description: as §3

Data set [11] has as its system Mycoplasma gallisepticum. The data set is described as follows: In vitro activity, standard agar-dilution assay. Conditions: Mycoplasmoides gallisepticum. It counts as cell-based.
Description: as §3

The subject of data set [12] is Staphylococcus aureus 209P. The data set is described as follows: In vitro activity, standard agar-dilution assay. It counts as cell-based.
Description: as §3

For data set [13], the system named is Mycoplasma gallisepticum. The data set is described as follows: Treatment of induced Mycoplasma gallisepticum infection in chicks with DMT base. The data set is classed as in vivo. Conditions: infected control 304. As for the experimental part: as §1
The subject of data set [14] is Staphylococcus aureus 3055. Description: Experimental infection in mice. The data set is classed as in vivo. Particulars: two doses.
The format of data set [15] is physicochemical. An excerpt: DMT base is soluble in water and in most polar organic solvents, such as acetone, methanol, ethanol, chloroform, dimethylformamide and dimethyl sulfoxide. DMT acid addition salts are more soluble in water than is DMT base.
Data set [16] deals with gram-positive microorganisms and Mycoplasma species. The data set is described as follows: Inhibition of growth of pathogenic bacteria (general statement). The data set is classed as cell-based.
Description: as §3

Where [17] appears, read: 1.0 g/gal, 1-3 days, drinking water.
The mark [18] stands for this setting: 2.0 g/gal, 1-3 days, drinking water.

By LD50 is commonly meant the dose at which mortality reaches 50%. A higher LD50 goes with a less toxic substance. Broadly, the pKa is the negative logarithm of the acid dissociation constant. The term MIC denotes the smallest concentration in the dilution series that meets the test's criterion for growth inhibition.

Values after ≈ are worked out from the molar mass of the structure shown. Counter-ions that a name gives are not always drawn. Like-named read-outs stand apart in the source and are kept apart here.

With `CCC1OC(=O)CC(O)C(C)C(OC2OC(C)C(OC3CC(C)(O)C(O)C(C)O3)C(N(C)C)C2O)C(CC=O)CC(C)C(=O)C=CC(C)=CC1CO` (stereo not shown) [DMT Tartrate], the “Avg. Wt.” value is listed as 330 g in the data set with Mycoplasma gallisepticum [1] (30 mg/kg, injection); 354 g with Mycoplasma gallisepticum [1] (setting [17]); 458 g in the data set with Mycoplasma gallisepticum [1] (setting [18]). In addition, the ED50 is 172 mg/kg × 2 in [2] (oral, challenge 11.3 × LD50); 2.3 mg/kg × 2 in data set [2] (subcutaneous, challenge 13 × LD50); 100 mg/kg in data set [3] (po); at most 9.9 mg/kg in data set [3] (sc).
In the case of `CCC[C@@H]1C[C@@H](C(=O)N[C@@H]([C@H]2O[C@H](SC)[C@H](O)[C@@H](O)[C@H]2O)[C@@H](C)O)N(C)C1` [Lincomycin], the “Antibiotic Sensitivity” value in data set [4] (disc conc. 2 μg) and in data set [5] (disc conc. 2 μg) was “-” throughout.
With `CCC1OC(=O)CC(O)C(C)C(OC2OC(C)C(OC3CC(C)(O)C(O)C(C)O3)C(N(C)C)C2O)C(CC=O)CC(C)C(=O)C=CC(C)=CC1CO` (stereo not shown) [DMT, 23-demycinosyltylosin], the LD50 in data set [6] (ip, females) was 325 mg/kg; in data set [6] (ip, males), 721 mg/kg; in [6] (iv, females), 186 mg/kg; in data set [6] (iv, males), 100 mg/kg; in data set [6] (po, females), over 5000 mg/kg; in data set [6] (sc, females), 5450 mg/kg. The compound further showed a pKa in the data set “physchem” of about 7.25. Moreover, the MIC in [7] amounted to 1 µg/mL (≈ 1.35 µM); in [8], 0.25 µg/mL (≈ 0.337 µM); in [9], 0.5 µg/mL (≈ 0.674 µM); in the data set on Pasteurella multocida it was 3.12 µg/mL (≈ 4.21 µM); against Pasteurella hemolytica, 12.5 µg/mL (≈ 16.8 µM); in [10] it was 0.13 µg/mL (≈ 0.175 µM). Further, the MIC stood at 0.195 µg/mL (≈ 0.263 µM) with Mycoplasma hyopneumoniae, 0.78 µg/mL (≈ 1.05 µM) with Mycoplasma hyorhinis, 0.097 µg/mL (≈ 0.131 µM) against Mycoplasma gallisepticum [11] and 0.25 µg/mL (≈ 0.337 µM) in data set [12]. In addition, the ED50 came to 218 mg/kg in [2] (Streptococcus pyogenes, C203, po, oral, challenge 11.3 × LD50, read-out: ED50); 2.2 mg/kg in [2] (Streptococcus pyogenes, C203, sc, subcutaneous, challenge 13 × LD50, read-out: ED50); 2.7 mg/kg in data set [14] (Staphylococcus aureus, 3055, sc, subcutaneous, challenge 21 × LD50); 64 mg/kg in [14] (Staphylococcus aureus, 3055, oral, challenge 26 × LD50); 66 mg/kg in data set [3] (po, two doses, challenge 2.7 × LD50); 15.7 mg/kg in data set [3] (sc, subcutaneous, two doses, challenge 3 × LD50). Further, the “Avg. Wt.” value amounted to 453 g in the data set on Mycoplasma gallisepticum [13] (15 mg/kg, injection); 392 g with Mycoplasma gallisepticum [13] (setting [17]); 397 g with Mycoplasma gallisepticum [13] (setting [18]). In data set [15], the “solubility in most polar organic solvents” value is recorded as “soluble”. Moreover, the solubility in water result in data set [15] is on record as “soluble”. Moreover, the “inhibition of growth of pathogenic organisms” value in data set [16] is “especially active against gram-positive microorganisms and Mycoplasma species”.
On to `[H]/N=C(/N)N[C@H]1[C@H](O)[C@@H](O)[C@H](O[C@@H]2O[C@@H](C)[C@](O)(C=O)[C@H]2O[C@@H]2O[C@@H](CO)[C@H](O)[C@@H](O)[C@@H]2NC)[C@@H](N/C(N)=N\[H])[C@@H]1O` [Streptomycin], for which the “Antibiotic Sensitivity” value in data set [4] (disc conc. 10 μg) and in data set [5] (disc conc. 10 μg) was “+” each time.
With `CCC1OC(=O)CC(O)C(C)C(OC2OC(C)C(OC3CC(C)(O)C(O)C(C)O3)C(N(C)C)C2O)C(CCO)CC(C)C(=O)C=CC(C)=CC1CO` (stereo not shown) [dihydro-DMT, 20-dihydro-23-demycinosyltylosin], the “inhibition of growth of pathogenic organisms” value in data set [16] was “especially active against gram-positive microorganisms and Mycoplasma species”.
For the compound `CN[C@H](CC(C)C)C(=O)N[C@H]1C(=O)N[C@@H](CC(N)=O)C(=O)N[C@H]2C(=O)N[C@H]3C(=O)N[C@H](C(=O)N[C@H](C(=O)O)c4cc(O)cc(O)c4-c4cc3ccc4O)[C@H](O)c3ccc(c(Cl)c3)Oc3cc2cc(c3O[C@@H]2O[C@H](CO)[C@@H](O)[C@H](O)[C@H]2O[C@H]2C[C@](C)(N)[C@H](O)[C@H](C)O2)Oc2ccc(cc2Cl)[C@H]1O` [Vancomycin], the “Antibiotic Sensitivity” value in data set [4] (disc conc. 30 μg) and in data set [5] (disc conc. 30 μg) was “+” each time.
As to `CN(C)[C@@H]1C(O)=C(C(N)=O)C(=O)[C@@]2(O)C(O)=C3C(=O)c4c(O)cccc4[C@@](C)(O)[C@H]3C[C@@H]12` [Tetracycline], the “Antibiotic Sensitivity” value in [4] (disc conc. 30 μg) and in [5] (disc conc. 30 μg) was “+” in each case.
On to `O=C(Cc1cccs1)N[C@@H]1C(=O)N2C(C(=O)[O-])=C(C[n+]3ccccc3)CS[C@H]12` [Cephaloridine], for which the “Antibiotic Sensitivity” value in [4] (disc conc. 30 μg) and in data set [5] (disc conc. 30 μg) was “+” throughout.
For the compound `O=C(N[C@H](CO)[C@H](O)c1ccc([N+](=O)[O-])cc1)C(Cl)Cl` [Chloramphenicol], the “Antibiotic Sensitivity” value in [4] (disc conc. 30 μg) and in data set [5] (disc conc. 30 μg) was “+” in each case.
